Reference: patent US10738024B2, “Compounds for treatment of angiogenesis-mediated diseases” (Indiana University Research and Technology Corporation, priority 2013, dated 2020)
Entries after “also recorded” stand apart in the source; their conditions may differ.

Columns and labels:
Assay type in all cases: cell-based, human
HRECs = test: EdU incorporation (DNA synthesis) in HRECs; details: 24 hours treatment, 10 μM EdU pulse; listed as SH-11052 (2)
Description: In order to confirm the inhibition of cell proliferation, incorporation of 5-ethynyl-2′-deoxyuridine (EdU) into endothelial cells in the presence of SH-11052 (2) was further monitored. Particularly, cells (25,000 per coverslip) were seeded onto coverslips coated with Attachment Factor (Cell Systems, Kirkland, Wash., USA) placed in a 6-well plate and incubated with the indicated concentrations of SH-11052 (2) in EGM-2 for 24 hours at 37° C. and 5% CO2. The cells were then serum starved for 8 hours and the medium was replaced with EGM-2 containing 10 μM EdU. The plate was further incubated for another 8 hours before processing the cells for detection of labeled DNA (according to the manufacturer's instructions for the Click-iT EdU assay kit). Images were taken using an EVOS fluorescence microscope (AMG, Mill Creek, Wash., USA) and the number of DAPI stained and EdU stained cells were counted in six randomly chosen fields using ImageJ software.

p38 MAPK = test: Phosphorylation of p38 MAPK in HRECs after TNF-α (immunoblot)
Description: HRECs were seeded at 10^5 cells/well in a 6-well plate and after 24 hours of incubation at 37° C., cells were serum starved in 0.1% serum-EBM-2 for 8 hours. Cells were then treated with the indicated concentrations of SH-11052 (2) for one hour before the addition of 20 ng/ml of TNF-α. After 20 minutes, cells were lysed in NP-40 Lysis buffer containing 25 mM HEPES pH 7.4, 1% NP-40, 150 mM NaCl, 10% glycerol, 1 mM sodium orthovanadate, 10 mM sodium fluoride, 1 mM sodium pyrophosphate, 1 mM PMSF, 2.5 mg/ml aprotinin, 1 mM pepstatin, and 1 mM leupeptin. Equal amounts of proteins (80 μg), as measured by a Bradford assay, were run on 10% SDS-PAGE, transferred to PVDF membrane, blocked with 5% BSA in TBS-0.05% Tween-20 and immunoblotted with the indicated primary antibodies (1:1000 in 1% BSA in TBS-0.05% Tween-20) overnight at 4° C. After three washes in TBS-0.05% Tween-20, HRP-conjugated secondary antibodies (1:5000 in 5% BSA in TBS-0.05% Tween-20) were applied for one hour at room temperature. After three washes, the protein bands were detected and densitized using ECL Prime western blot detection reagent (GE Life Sciences, Piscataway, N.J., USA) and an XRS gel documentation system running Quantity One software (Bio-Rad). Target protein band intensity was normalized to housekeeping gene α-tubulin. […]

VCAM-1 = VCAM-1 protein expression in HRECs exposed to TNF-α (immunofluorescence); details: 10 ng/ml TNF-α for 24 hours
Description: Cells (25,000 per coverslip) were seeded onto coverslips coated with Attachment Factor (Cell Systems, Kirkland, Wash., USA) and incubated at 37° C. and 5% CO2 for 24 hours in EGM-2. The cells were starved in 0.1% serum-EBM-2 for 8 hours followed by incubation in 0.1% serum-EBM-2 medium for an hour in the presence of different concentrations of SH-11052 (2). The cells were challenged with 10 ng/ml of TNF-α for 24 hours and fixed with 4% paraformaldehyde solution for 20 minutes at room temperature. The coverslips were quickly washed three times in TBS and blocked using 10% block solution (DAKO) prepared in 1×TBS-1% BSA buffer. The coverslips were incubated with the antibody against VCAM-1 (1:100 dilution), a cell adhesion molecule specifically expressed on endothelial cells, whose expression is induced by NF-κB upon TNF-α signaling, for 16 hours at 4° C. followed by three washes in TBS-0.1% BSA buffer. Dylight 555-conjugated secondary antibody (1:200) was used to probe for the VCAM-1 antibody. After three washes in TBS-0.1% BSA, the coverslips were mounted using Vectashield mounting medium containing DAPI nuclear stain. The cells were imaged using an LSM 700 confocal microscope. The image was analyzed for fluorescence signal intensity using MetaMorph software (Molecular Devices, Sunnyvale, Calif., USA).

PTGS2 (COX2) = test: qRT-PCR of NF-κB target gene PTGS2 in TNF-α challenged cells; details: 10 ng/ml TNF-α for 24 hours; listed as SH-11052 (2)
Description: Similarly, the mRNA expression of the pro-inflammatory molecules IL8, PTGS2 (COX2) and CCL2 (MCP-1), inducible by NF-κB, were analyzed in the presence of SH-11052 (2). Cells (10^5 per well) were seeded in a 6-well plate and incubated for 24 hours at 37° C. and 5% CO2. The cells were then starved in 0.1% serum-EBM-2 for 12 hours followed by incubation for an hour in the presence of different concentrations of SH-11052 (2). The cells were then challenged for 24 hours with 10 ng/ml TNF-α. Following incubation, cells were lysed and RNA was isolated using Trizol reagent (Life Technologies). cDNA was prepared from 80 ng total RNA using random primers and M-MuLV Reverse Transcriptase (New England Biolabs, Ipswich, Mass., USA). RT-PCR reactions were set up using the TaqMan Fast Gene Expression Assay Kit according to the manufacturer's instructions. FAM-labeled TaqMan probes for PTGS2 (Hs00153133_m1), CCL2 (Hs00234140_m1), IL8 (Hs00174103_m1), and control, TBP (Hs99999910_m1), genes were used to monitor the expression levels of these genes. The qRT-PCR plate was read in a ViiATM 7 qPCR system (Life Technologies) and the data were analyzed using the ΔΔCt method. The expression levels of genes were normalized to TBP gene expression and calibrated to the DMSO-treated, unstimulated sample.

Structure (SMILES): COc1ccc(CC2COc3cc(OC)c(O)c(O)c3C2=O)cc1O (single isomer, unassigned) [Compound 2]
- DNA synthesis (EdU incorporation) in HRECs (HRECs): blocked EdU incorporation; also recorded: significantly inhibited in a dose dependent manner
- phosphorylation of p38 MAPK (p38 MAPK): inhibited phosphorylation
- VCAM-1 protein expression (VCAM-1): significant dose-dependent decrease
- mRNA expression of PTGS2 (COX2) (PTGS2 (COX2)): decreased the expression
